These results are taken from US10240124B2, “Cell culture substrate comprising a laminin and a cadherin” (BioLamina AB, priority 2011, dated 2019).

For one test, the system named is hES cells on LN-521. Briefly: Inhibition of survival assay on LN-521. The format is cell-based, human. To be noted: medium contained bFGF, FIG. 16. An excerpt: InSolution™ LY 294002 (a specific Akt inhibitor), InSolution™ Wortmannin (a specific PI3K inhibitor), and InSolution™ 98059 (a specific MEK1/Erk inhibitor) were purchased from Calbiochem. Antibodies to phospho-Akt (#4060), total-Akt (#9272), phospho-Erk (#9101), and total-Erk (#9102) were obtained from Cell Signaling Technology. PathScan Phospho-Akt1 sandwich ELISA kit (#7160), PathScan total Akt1 sandwich ELISA kit (#7170), PathScan Phospho-Akt2 sandwich ELISA kit (#7048), and PathScan total Akt2 sandwich ELISA kit (#7046) were also purchased from Cell Signaling Technology. Antibodies to Calnexin (#ab10286) were obtained from Abcam. Function blocking antibodies to various integrin subunits, mouse isotype antibodies, and α-dystroglycan were purchased from Millipore. Since function blocking antibodies to αV (MAB1980) and α6 (MAB1378) were presented in a solution with sodium azide, before the inhibition of survival experiment all the antibodies to alpha integrin subunits were dialyzed thrice against O3 medium for 2 hours each time. Antibodies to Lutheran receptor and α-fetoprotein, as well as rat isotype control antibodies were obtained from R&D Systems. Antibodies to Oct4, Nanog, SSEA-4, smooth muscle actin and MAP-2 were purchased from Millipore. […]

Another test has as its system human ES cells (HS181). Briefly: Cell adhesion assay, Crystal Violet (Example 1). The format is cell-based. Conditions: for cells remaining attached / surviving 24 hours after plating: HS181 completely dissociated, FIG. 4. The procedure:
Ninety-six-well tissue cell culture plates were coated overnight at 4° C. with sterile solutions of the ECM proteins mouse LN-111 (Invitrogen), human recombinant LN-511, and human recombinant LN-521, all at a concentration of 30 μg/ml (5 μg/cm^2). For control cells, BD Matrigel™ hESC qualified (BD Biosciences) was used according to the manufacturer's instructions.
The assay was performed as described (Extracellular Matrix Protocols, 2000). Briefly, 96-well plates were coated by extracellular matrix proteins as described above and blocked by O3 medium containing bovine serum albumin. The ES cells were plated at a cell density of 600 cell/mm^2 upon extracellular matrix-coated plates and were left to adhere for either 1 hour or 1 day at the cell incubator. Non-adherent cells were washed away, and adherent cells were fixed for 20 min by 5% glutaraldehyde, stained by 0.1% Crystal Violet.

Test [1] has as its system hES cells. Briefly: Cell survival assay, 24 hours (Example 2). The format is cell-based, human. Conditions: for survival of hES cells 24 hours after plating from single cell suspension: O3 medium, absence of ROCK inhibitor; for survival of dissociated hES cells after 24 hours: quantified survival assay. The procedure:
(§1) Briefly, 96-well plates were coated by extracellular matrix proteins as described above and blocked by O3 medium containing bovine serum albumin. The ES cells were plated at cell density of 50,000 cells/cm^2 onto extracellular matrix-coated plates and left to adhere for 1 hour in a cell incubator. After that the plates were washed 3 times with the medium to remove the non-adherent cells, and then the adherent cells were fixed for 20 minutes by 5% glutaraldehyde, stained by 0.1% Crystal Violet. (Kebo Lab, Spanga, Sweden, http://www.kebolab.se). After one hour and 3 washes with water, Crystal Violet was extracted with 10% acetic acid and quantified by measuring optical density at 570 nm. All the experiments were performed in quadruplicate.
The survival assay was performed as described for the cell adhesion assay above, except that the cells were left in the cell incubator for 24 hours. For inhibition of survival assay, the cells were kept in a medium with function blocking antibodies at the concentrations recommended by the manufacturer or pathway inhibitors at concentrations indicated in the text for 30 minutes, and then plated on the coated dishes. All the experiments were performed in quadruplicate.
Pluripotent hES cells express α1, α5, β1, β2 and γ1 laminin chains. To compare the adhesion and clonal survival of hES cells plated from single cell suspension to different coating substrata, hES cells growing as monolayers on LN-511 or as clusters on a feeder layer were trypsinized into single cell suspension in O3 medium and plated on cell culture dishes coated with Matrigel, LN-111, LN-511, LN-521 or a mixture of LN-511 and LN-521, in the absence or presence of a ROCK inhibitor (Y-27632) and analyzed after 24 hours.

Test [2] relates to human embryonic stem cells. Briefly: Survival of hES cells plated in single cell suspension on precoated dishes (description). The format is cell-based. Conditions: O3 medium, 30 Kcells/cm^2. An excerpt:
In other aspects, the present disclosure provides a new material, isolated laminin-521, which permits human embryonic stem cell survival after dissociation into single cell suspension. The stem cells were dissociated into single cell suspension by Trypsin-EDTA treatment, pelleted by centrifugation, resuspended into O3 medium, filtered through a 40 μm sieve, and plated at a density of 30 Kcells/cm^2 on cell culture dishes precoated by either isolated laminin-521, laminin-511, or Matrigel. After one day in culture, the cells plated on Matrigel died, as is known in the art.

Test [3] relates to hES cells. Briefly: Cell adhesion assay, 1 hour (Example 2). Conditions: compared with Matrigel or LN-111, not shown. The format is cell-based, human. As to the method:
Tissue cell culture plates were coated overnight at 4° C. with sterile solutions of the ECM proteins, such as human recombinant LN-521, all at a concentration of 30 μg/ml (5 μg/cm^2). Control plates were coated with Matrigel according to the STEMCELL Technologies' instructions. Prior to use, dishes were pre-warmed in an incubator for one hour after which prewarmed O3 medium was added without additional washing of the dish. After applying a fresh LN-521 solution to a new dish, the remaining LN-521 solution could be used at least once more. All the adhesion, survival, and inhibition of survival experiments were carried out using fresh coating materials.
as §1

Another test concerns myosin light chain (MLC). Briefly: Western blot of phosphorylated myosin light chain. Conditions: one and six hours after plating, FIG. 12 and 13. Format: cell-based, human. The procedure: HS 181 cells were trypsinized into single cell suspension as described above. For inhibition experiments, the cells were kept in O3 medium with blocking antibodies or pathway inhibitors for 30 minutes and then 450K cells were plated on 35 mm dishes precoated with the appropriate matrix coating. For other experiments, same number of cells was plated directly after trypsinization. […] After two washings in ice-cold PBS, the plates with cells were snap frozen in liquid nitrogen and stored at −80° C. To prepare samples for western blots and ELISA, the plates were slowly thawed and kept on ice with 100-150 μl of lysis buffer (50 mM Tris-HCl, pH7.5, 150 mM NaCl, 0.5% deoxycholate, 0.5% SDS, 1% Triton X-100, 1% Igepal, Complete™ (Roche) and Phospho-Stop™ (Roche)) on top. Then, the cells were scraped, pipetted and sheared through a 27 G ¾″ needle. After that, the cell pellets were clarified by centrifugation at 16,100 rcf for 15 minutes at 4° C. For western blots, 4-12% gradient gels were used for SDS electrophoresis and the proteins were transferred to PVDF membranes. The membrane was hybridized with the antibody of interest according to the manufacturer's instructions. […] For the densitometry analysis the films were scanned at 2,400 dpi and analyzed by the Chemilmager5500 program (1 D-Multi Line densitometry mode). […]
(In general: Immunoblotting shows a protein as a band on a membrane.)

Another test addresses Integrin α6β1 (Homo sapiens, UniProt P05556+P23229). Conditions: cited from earlier work.
The next test deals with Human ES cells. Conditions: over 3 months; engraftment into SCID mice; cited from earlier work.
Test [4] concerns hES cells. Briefly: Clonal survival of individualized hES cells, alkaline phosphatase staining (Example 4). The format is cell-based, human. The procedure:
hES cells were plated in mTeSR1 medium on different coatings at a density of 250 cells per cm^2 and monitored after 5 days in culture using an alkaline phosphatase staining kit.
Next, combinations of laminin-521 and E-Cadherin were tested to determine whether the combinations could sustain clonal survival of the cells. Fixed amounts of laminin-521 were used for the cell culture dish coating in combination with titrated E-Cadherin.
Additional tests were performed to test the effects of various modifications to the mTeSR1 medium. A mixture of E-Cadherin to laminin-521 in a ratio of about 1:10 w/w was used to coat the plates. […] Time-lapse photography of the cells confirmed that laminin-521/E-Cadherin coatings facilitated cell survival through proliferation of the single cells, not through the aggregation of different cells.

The mark [5] stands for this setting: O3 medium without any additives.

Sequence of Integrin α6β1 (P23229 24-1130): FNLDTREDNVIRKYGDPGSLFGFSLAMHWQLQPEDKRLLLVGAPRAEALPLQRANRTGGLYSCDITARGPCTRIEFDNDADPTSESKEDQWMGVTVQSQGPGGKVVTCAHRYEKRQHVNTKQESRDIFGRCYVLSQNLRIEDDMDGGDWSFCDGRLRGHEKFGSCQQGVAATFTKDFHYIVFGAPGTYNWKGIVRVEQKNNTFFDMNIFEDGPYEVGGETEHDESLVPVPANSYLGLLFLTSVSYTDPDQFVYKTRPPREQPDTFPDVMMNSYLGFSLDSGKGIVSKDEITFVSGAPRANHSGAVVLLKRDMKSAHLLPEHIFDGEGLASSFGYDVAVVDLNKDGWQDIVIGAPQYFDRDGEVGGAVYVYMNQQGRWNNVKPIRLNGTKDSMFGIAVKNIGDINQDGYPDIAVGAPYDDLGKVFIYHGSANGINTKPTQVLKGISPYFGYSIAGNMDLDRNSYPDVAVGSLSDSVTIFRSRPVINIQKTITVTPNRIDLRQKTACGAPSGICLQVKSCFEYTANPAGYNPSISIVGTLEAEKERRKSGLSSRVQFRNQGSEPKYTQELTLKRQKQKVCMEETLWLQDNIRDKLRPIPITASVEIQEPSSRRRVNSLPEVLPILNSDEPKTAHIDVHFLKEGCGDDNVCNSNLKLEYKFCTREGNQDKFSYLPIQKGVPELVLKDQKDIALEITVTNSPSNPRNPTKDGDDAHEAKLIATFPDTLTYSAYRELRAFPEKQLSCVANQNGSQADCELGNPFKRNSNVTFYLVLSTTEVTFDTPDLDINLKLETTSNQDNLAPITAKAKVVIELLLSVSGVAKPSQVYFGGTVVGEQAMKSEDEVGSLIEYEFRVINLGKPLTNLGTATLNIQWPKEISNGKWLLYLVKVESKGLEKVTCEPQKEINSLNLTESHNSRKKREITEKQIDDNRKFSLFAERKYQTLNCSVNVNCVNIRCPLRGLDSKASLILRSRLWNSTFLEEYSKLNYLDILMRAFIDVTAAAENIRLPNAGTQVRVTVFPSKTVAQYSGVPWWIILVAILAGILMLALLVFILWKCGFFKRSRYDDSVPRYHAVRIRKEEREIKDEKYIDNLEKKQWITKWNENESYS
Sequence of Integrin α6β1 (P05556 21-798): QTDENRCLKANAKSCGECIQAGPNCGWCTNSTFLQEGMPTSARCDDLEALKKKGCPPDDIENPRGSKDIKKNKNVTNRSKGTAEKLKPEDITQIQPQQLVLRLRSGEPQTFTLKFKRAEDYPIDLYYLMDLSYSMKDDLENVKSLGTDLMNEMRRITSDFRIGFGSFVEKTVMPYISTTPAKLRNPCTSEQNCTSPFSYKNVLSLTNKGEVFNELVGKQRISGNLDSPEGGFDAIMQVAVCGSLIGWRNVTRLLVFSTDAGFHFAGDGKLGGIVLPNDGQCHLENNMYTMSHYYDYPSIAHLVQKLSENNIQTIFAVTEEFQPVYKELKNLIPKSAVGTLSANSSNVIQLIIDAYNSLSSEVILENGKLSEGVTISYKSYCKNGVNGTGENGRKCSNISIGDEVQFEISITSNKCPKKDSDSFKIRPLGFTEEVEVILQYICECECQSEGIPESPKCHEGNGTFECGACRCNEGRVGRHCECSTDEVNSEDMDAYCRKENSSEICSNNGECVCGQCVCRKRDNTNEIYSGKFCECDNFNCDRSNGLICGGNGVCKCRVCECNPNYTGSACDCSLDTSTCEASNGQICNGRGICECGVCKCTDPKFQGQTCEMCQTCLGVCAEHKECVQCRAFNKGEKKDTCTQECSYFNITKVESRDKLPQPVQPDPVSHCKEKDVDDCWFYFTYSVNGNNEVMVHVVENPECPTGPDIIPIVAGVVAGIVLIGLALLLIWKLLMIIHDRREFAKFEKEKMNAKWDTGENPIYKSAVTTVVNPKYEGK

For `COc1cccc(-c2cc(=O)c3ccccc3o2)c1N` [PD 98059], in the test with hES cells on LN-521, the “hES cell survival 24 hours after plating on LN-521 with pathway inhibitor” value is on record as “did not affect the survival that severely”.

Turning to `C[C@@H](N)[C@H]1CC[C@H](C(=O)Nc2ccncc2)CC1` [Y-27632, reference compound], in the test on human ES cells (HS181) (O3 medium treated with Y-27632, five coatings, FIG. 5), the “cells remaining attached after one day with ROCK inhibitor” value was “remained attached on all 5 coatings”. In addition, the “survival of hES cells 24 hours after plating in the presence of ROCK inhibitor” value in the test with hES cells [1] (Y-27632, all coatings) is listed as “survived on all surfaces”.

For the molecule “LN-111: mouse laminin-111 (Invitrogen), indicated as LN-111 if not otherwise stated”, the “cells remaining attached / surviving 24 hours after plating” value in the test with human ES cells (HS181) (setting [5]) is reported as “almost no cells remained attached”. In addition, in the test on hES cells [1], the “survival of hES cells 24 hours after plating from single cell suspension” value (“survival … from single cell suspension” below) is on record as “did not survive” and the “survival of dissociated hES cells after 24 hours” value is given as “almost no cells had survived”.

As for “LN-121: human recombinant laminin of α1, β2 and γ1 chains from triple-transfected HEK293 cells”, in the test with hES cells [1], the “survival … from single cell suspension” value is “failed to survive”.

For the molecule “LN-511: human recombinant laminin-511, control coating”, in [2], the “survival of human embryonic stem cells after one day in culture” value is “in most cases on laminin-511 survived”. Besides, the “cells remaining attached / surviving 24 hours after plating” value with human ES cells (HS181) (setting [5]) is recorded as “at a less extent”. In addition, the “adhesion of human ES cells at 1 hour” value in the test on human ES cells (HS181) (O3 medium without any additives, without Y-27632, FIG. 6) was “roughly the same”. Besides, in the test with hES cells [3], the “spreading of the cells after one hour” value is recorded as “clearly better”. Further, in the test on hES cells [1], the “survival … from single cell suspension” value is “did so as single cells” and the “survival of dissociated hES cells after 24 hours” value was “very few”. In the test on myosin light chain (MLC), the “phosphorylation of MLC compared with cells on Matrigel and LN-111” value is recorded as “even higher”. For the same molecule, the “binding affinity of integrin α6β1 compared with LN-111” value in the test with Integrin α6β1 is reported as “higher than that for LN-111”. Besides, in the test on Human ES cells, the “pluripotency of human ES cells in long-term culture” value was “maintain pluripotency and can generate teratomas”.

“albumin: albumin of the mTeSR1 medium, concentration increased 2×”: the “effect of 2× increase in albumin concentration on clonal survival” value in the test with hES cells [4] (laminin-521/E-Cadherin matrix, mTeSR1) is recorded as “significantly improved clonal survival”.

Take “human recombinant LN-111: human recombinant laminin of α1, β1 and γ1 chains from triple-transfected HEK293 cells”: the “survival … from single cell suspension” value in the test on hES cells [1] was “failed to survive”.

B1: E-Cadherin: epithelial-cadherin, most abundant cadherin isoform on the human ES cell surface; coating protein (protein, UniProt P12830 155-882, looked up)
Cadherin-1: DWVIPPISCPENEKGPFPKNLVQIKSNKDKEGKVFYSITGQGADTPPVGVFIIERETGWLKVTEPLDRERIATYTLFSHAVSSNGNAVEDPMEILITVTDQNDNKPEFTQEVFKGSVMEGALPGTSVMEVTATDADDDVNTYNAAIAYTILSQDPELPDKNMFTINRNTGVISVVTTGLDRESFPTYTLVVQAADLQGEGLSTTATAVITVTDTNDNPPIFNPTTYKGQVPENEANVVITTLKVTDADAPNTPAWEAVYTILNDDGGQFVVTTNPVNNDGILKTAKGLDFEAKQQYILHVAVTNVVPFEVSLTTSTATVTVDVLDVNEAPIFVPPEKRVEVSEDFGVGQEITSYTAQEPDTFMEQKITYRIWRDTANWLEINPDTGAISTRAELDREDFEHVKNSTYTALIIATDNGSPVATGTGTLLLILSDVNDNAPIPEPRTIFFCERNPKPQVINIIDADLPPNTSPFTAELTHGASANWTIQYNDPTQESIILKPKMALEVGDYKINLKLMDNQNKDQVTTLEVSVCDCEGAAGVCRKAQPVEAGLQIPAILGILGGILALLILILLLLLFLRRRAVVKEPLLPPEDDTRDNVYYYDEEGGGEEDQDFDLSQLHRGLDARPEVTRNDVAPTLMSVPRYLPRPANPDEIGNFIDENLKAADTDPTAPPYDSLLVFDYEGSGSEAASLSSLNSSESDKDQDYDYLNEWGNRFKKLADMYGGGEDD
As to B1, in the test with hES cells [4] (mTeSR1, 250 cells per cm^2, 5 days), the “clonal survival of individualized hES cells” value is “Neither laminin-521 nor E-Cadherin alone permitted efficient clonal survival”.
